Each structure is given as a SMILES string.

A word on the Ki: it is the equilibrium dissociation constant of an inhibitor or competing ligand from its target.

The test addresses T1, Glutamate receptor ionotropic, kainate 4 (Homo sapiens, UniProt Q16099).
T1 sequence (Q16099 whole entry): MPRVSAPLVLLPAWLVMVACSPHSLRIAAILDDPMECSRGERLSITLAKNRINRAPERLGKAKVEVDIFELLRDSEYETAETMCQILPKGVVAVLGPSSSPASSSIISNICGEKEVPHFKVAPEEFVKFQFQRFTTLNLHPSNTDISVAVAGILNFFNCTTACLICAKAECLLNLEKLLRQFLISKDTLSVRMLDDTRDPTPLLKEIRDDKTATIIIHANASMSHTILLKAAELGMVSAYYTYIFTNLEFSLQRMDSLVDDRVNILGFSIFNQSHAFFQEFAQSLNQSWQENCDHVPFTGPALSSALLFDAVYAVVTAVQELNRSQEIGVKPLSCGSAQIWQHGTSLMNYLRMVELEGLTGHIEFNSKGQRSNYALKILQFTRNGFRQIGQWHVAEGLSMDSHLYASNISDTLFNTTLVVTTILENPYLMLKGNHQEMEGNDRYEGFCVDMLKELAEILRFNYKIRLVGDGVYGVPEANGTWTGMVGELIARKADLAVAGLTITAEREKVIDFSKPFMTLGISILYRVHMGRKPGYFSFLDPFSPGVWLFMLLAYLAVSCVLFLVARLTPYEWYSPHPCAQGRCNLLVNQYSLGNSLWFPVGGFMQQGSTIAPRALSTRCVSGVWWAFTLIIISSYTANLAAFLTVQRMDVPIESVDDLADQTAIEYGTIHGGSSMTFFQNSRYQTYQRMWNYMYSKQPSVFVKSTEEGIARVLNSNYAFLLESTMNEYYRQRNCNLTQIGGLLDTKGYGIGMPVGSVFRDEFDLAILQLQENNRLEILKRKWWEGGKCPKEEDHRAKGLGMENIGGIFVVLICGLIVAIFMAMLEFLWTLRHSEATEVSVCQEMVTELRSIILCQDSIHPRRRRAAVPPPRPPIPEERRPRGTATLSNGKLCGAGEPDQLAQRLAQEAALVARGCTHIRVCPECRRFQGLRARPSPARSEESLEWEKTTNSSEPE
Molecule `CC(C)[C@H]1CN[C@H](C(=O)O)[C@H]1CC(=O)O` [dihydrokainic acid] gave a Ki of 3.84 µM.

With `C/C(=C\C=C\[C@@H](C)C(=O)O)[C@H]1CN[C@H](C(=O)O)[C@H]1CC(=O)O`, the Ki is 0.0105 µM. `N[C@@H](Cn1oc(=O)[nH]c1=O)C(=O)O` [2-amino-3-(3,5-dioxo[1,2,4]oxadiazolidin-2-yl)propionic acid] showed a Ki of 0.00643 µM. The figure for `NC(CCC(=O)O)C(=O)O` (centres undefined) [glutamic acid dianion] is 0.0183 µM; for `N#Cc1cc2nc(O)c(O)nc2cc1[N+](=O)[O-]` [7-Cyano-3-hydroxy-6-nitro-quinoxalin-2-ol anion] it is greater than 10 µM; for `Cc1onc(O)c1CC(N)C(=O)O` (stereo not drawn) [(RS)-2-amino-3-(3-hydroxy-5-methylisoxazol-4-yl)-propionicacid] it is 1.97 µM. `CN[C@H](CC(=O)O)C(=O)O` [NMDA] yielded a Ki greater than 10 µM. The figure for `C=C(C)[C@H]1CN[C@H](C(=O)O)[C@H]1CC(=O)O` [Digensaeure] is 0.00229 µM. `O=C1N=c2cc([N+](=O)[O-])c([N+](=O)[O-])cc2=NC1=O` [NSC_3140] came in with a Ki of 8.49 µM.

The record behind these values is BindingDB's records for doi:10.1046/j.1471-4159.1994.62010001.x (Allelix Biopharmaceuticals, 1994).
